Key:
C. albicans biofilms = assay: Checkerboard assay, biofilm inhibition (CTB staining); type: cell-based, Candida albicans
Protocol: The biofilm inhibition concentration (BIC) was determined as described in Delattin N et al. (J Antimicrob Chemother 69(2014): 1035-1044). In short, RPMI medium was inoculated with an overnight culture to an OD (optical density) of 0.1, transferred to a U-bottom 96-well plate (MLS, Belgium) and treated with serial dilutions of substances. After the adherence phase (1 h, 37° C.), supernatant was removed, adherent cells were washed with PBS and fresh media (including substances) was added. Biofilms were then allowed to grow for 24 h at 37° C.
Formed biofilms were then analyzed for their metabolic activity. Therefore, C. albicans biofilm cells were treated with CTB (cell titer Blue®; Promega, Germany), diluted 1:100 in PBS. After incubation for 1 h at 37° C. in the dark fluorescence intensity was measured using a 96-well plate reader (Ex: 535, Em: 590, sens 65). For C. glabrata, XTT (2H-Tetrazolium, 2,3-bis(2-methoxy-4-nitro-5-sulfophenyl)-5-[(phenylamino)carbonyl]-hydroxide; Sigma, Germany or ABCR, Germany) was used instead. Thereby, biofilm cells were treated with an XTT solution (0.25 mg/mL XTT+0.1 μM menadione in PBS) at 37° C. in the dark and OD490 was measured.
For synergy testing of different combinations, checkerboard assays were performed. […] Antifungal activity of substances alone or in combination was determined by setting the corresponding control to 100%.

C. albicans SC5314 = assay: C. elegans infection model, worm survival; type: in vivo
Protocol: The C. elegans Δglp-4 Δsek-1 strain (generously provided by Valerie Defraine, Centre of Microbial and Plant Genetics, KU Leuven, Belgium) was used for in vivo testing of antifungal activity. Worms were maintained on NGM plates (nematode growth medium; 2.5 g/L Bacto Peptone, 3 g/L NaCl, 17 g/L agar, supplemented with 5 mg/L cholesterol, 1 mM CaCl2), 1 mM MgSO4 and 25 mM KPO4 buffer pH 6.0), seeded with a thin layer of E. coli OP50, at 16° C. and worms were chunked onto fresh plates every three to four days.
Egg collecting was performed by bleaching according to Stiernagle T (“Maintenance of C. elegans”. WormBook. doi: 10.1895/wormbook.1.101 (2006)) and Porta-de-la-Riva M et al. JoVE 64(2012): e4019-e4019). In short, adult worms were collected from plates and treated with a bleaching solution (10 mL household bleach+5 mL 5M NaOH), thereby worms disintegrate and eggs are released. After vigorous shaking for 5 min, M9 medium (3 g/L KH2PO4, 6 g/L Na2HPO4, 5 g/L NaCl, supplemented with 1.25 mM MgSO4) was added and worms were immediately put on ice. After three washing steps, residual eggs were incubated in M9 medium over night at 16° C. on a tube roller. The next day, eggs were collected, transferred onto fresh NGM/OP50 plates and incubated at 25° C. for 3-4 days until nematodes have reached the L3/L4 stage prior to infection.
Synchronized (L3/L4 stage) worms were collected, washed three times with M9 media and spotted onto prepared YPD plates with a thin layer of C. albicans SC5314. […]
For efficacy testing of compounds, 750 μL of the worm suspension were transferred into each well of a 24-well plate and substances were added at indicated concentrations (1% DMSO). Nematodes were immediately counted (t0) and survival was monitored over five days post infection by counting living worms.
To verify the antifungal potential of DHF in vivo, the well-established C. elegans infection model (Breger J, et al. (2007) PLOS Pathog. 3(2): e18.) was used. […] Survival of infected as well as non-infected nematodes was monitored daily over the time period of 5 days (FIG. 2A). […]

## O=c1c(O)c(-c2ccccc2)oc2ccc(O)cc12 [3,6-dihydroxyflavone]
C. albicans biofilms; 39 nM Caspo, 3.1 μM 3,6-DHF
  effect on activity of caspofungin, biofilm formation: enhances the activity of Caspofungin
C. albicans biofilms; 0.16 μM AMB, 25 μM 3,6-DHF
  combination with AMB on biofilms in vitro: acts synergistically with AMB
C. albicans SC5314; 25 μM 3,6-DHF with 0.125 μM miconazole or 0.5 μM fluconazole, 5 days
  effect on activity of azoles in vivo (worm survival): enhances the activity of azoles
C. albicans SC5314; 25 μM 3,6-DHF with 0.5 μM AMB, 5 days
  effect on antifungal activity of AMB in vivo (worm survival): enhances the antifungal activity of AMB
C. albicans SC5314; 50 μM DHF, single application immediately after infection, infected control 20.5%
  worms still alive at day 5 post infection: 45.7%

Reference: US20220249431A1, “ANTIMYCOTIC” (Karl-Franzens-Universität Graz, priority 2019, published 2022)
